pIC50: −log10 of the molar value. The source made the active and inactive calls. The calls are words filed in the database; no cut-off is given here.
How the values were obtained:
Spodoptera littoralis = assay: Cytotoxicity against Spodoptera littoralis Sl2 cells assessed as cell viability after 24 hr by MTT assay; conditions: read-out: pLC50 (converted)
Ecdysone receptor [1] = biological target: T1, Ecdysone receptor (Bombyx mori, UniProt P49881); assay: Agonist activity at ecdysone receptor in Bombyx mori Bm5 cells after 24 hr by luciferase reporter gene assay; assay type: cell-based; conditions: read-out: pEC50 (converted)
T1 sequence (P49881 whole entry): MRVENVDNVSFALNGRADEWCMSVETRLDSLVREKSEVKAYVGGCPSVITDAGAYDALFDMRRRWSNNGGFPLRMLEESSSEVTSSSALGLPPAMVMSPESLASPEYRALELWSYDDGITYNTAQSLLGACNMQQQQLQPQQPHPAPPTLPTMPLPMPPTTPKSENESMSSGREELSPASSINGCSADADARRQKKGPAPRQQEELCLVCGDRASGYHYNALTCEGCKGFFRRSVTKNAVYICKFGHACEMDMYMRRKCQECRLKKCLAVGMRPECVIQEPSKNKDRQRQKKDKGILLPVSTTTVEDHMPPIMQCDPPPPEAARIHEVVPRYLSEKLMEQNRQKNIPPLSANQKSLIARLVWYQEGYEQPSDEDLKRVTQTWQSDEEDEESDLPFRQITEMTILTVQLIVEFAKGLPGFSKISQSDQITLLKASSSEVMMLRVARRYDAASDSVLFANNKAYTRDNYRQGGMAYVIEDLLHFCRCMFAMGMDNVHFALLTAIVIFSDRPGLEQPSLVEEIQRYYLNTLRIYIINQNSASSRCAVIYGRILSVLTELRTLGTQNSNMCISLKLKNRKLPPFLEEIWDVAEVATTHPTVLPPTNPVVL

[2] = biological target: T2, Ecdysone receptor (Spodoptera littoralis) (UniProt E3UJZ5); assay: Agonist activity at ecdysone receptor in Spodoptera littoralis Sl2 cells after 24 hr by luciferase reporter gene assay relative to tebufenozide; assay type: cell-based
T2 sequence (whole entry): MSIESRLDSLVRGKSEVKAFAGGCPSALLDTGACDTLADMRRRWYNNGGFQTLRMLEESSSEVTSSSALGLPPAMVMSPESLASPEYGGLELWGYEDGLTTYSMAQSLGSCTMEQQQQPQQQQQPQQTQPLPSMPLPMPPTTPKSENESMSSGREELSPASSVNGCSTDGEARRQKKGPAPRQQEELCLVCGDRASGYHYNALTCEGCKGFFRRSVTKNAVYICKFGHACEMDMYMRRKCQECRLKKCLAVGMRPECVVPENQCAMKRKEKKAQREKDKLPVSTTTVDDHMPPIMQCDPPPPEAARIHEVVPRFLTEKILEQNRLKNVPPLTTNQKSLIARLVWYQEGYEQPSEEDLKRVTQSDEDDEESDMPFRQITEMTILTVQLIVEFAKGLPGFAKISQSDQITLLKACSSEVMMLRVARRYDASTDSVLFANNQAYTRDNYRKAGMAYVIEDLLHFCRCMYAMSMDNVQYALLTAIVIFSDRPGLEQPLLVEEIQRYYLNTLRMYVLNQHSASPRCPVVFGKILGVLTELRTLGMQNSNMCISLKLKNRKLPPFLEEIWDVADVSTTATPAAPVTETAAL

Ecdysone receptor [3] = biological target: T3, Ecdysone receptor (Spodoptera littoralis, UniProt E3UJZ5); assay: Agonist activity at ecdysone receptor in Spodoptera littoralis Sl2 cells after 24 hr by luciferase reporter gene assay; assay type: cell-based; conditions: read-out: pEC50 (converted)
T3 sequence (E3UJZ5 whole entry): T2 sequence (whole entry)

[4] = Ratio of IC50 for ecdysone receptor in Spodoptera littoralis Sl2 cells to LC50 for Spodoptera littoralis Sl2 cells
[5] = biological target: T4, Ecdysone receptor (Bombyx mori) (UniProt P49881); assay: Agonist activity at ecdysone receptor in Bombyx mori Bm5 cells after 24 hr by luciferase reporter gene assay relative to tebufenozide; assay type: cell-based
T4 sequence (whole entry): T1 sequence (P49881 whole entry)

[6] = Selectivity ratio of EC50 for ecdysone receptor in Bombyx mori Bm5 cells to EC50 for ecdysone receptor in Spodoptera littoralis Sl2 cells; assay type: cell-based
[7] = Ratio of IC50 for ecdysone receptor in Bombyx mori Bm5 cells to LC50 for Bombyx mori Bm5 cells
Ecdysone receptor [8] = biological target: T1, Ecdysone receptor; assay: Antagonist activity at ecdysone receptor in Bombyx mori Bm5 cells assessed as tebufenozide-induced effect treated 24 hr before tebufenozide challenge measured after 24 hr by luciferase reporter gene assay; assay type: cell-based
Ecdysone receptor [9] = biological target: T3, Ecdysone receptor; assay: Antagonist activity at ecdysone receptor in Spodoptera littoralis Sl2 cells assessed as tebufenozide-induced effect treated 24 hr before tebufenozide challenge measured after 24 hr by luciferase reporter gene assay; assay type: cell-based
[10] = Cytotoxicity against Bombyx mori Bm5 cells assessed as cell viability after 24 hr by MTT assay; assay type: cell-based; conditions: read-out: pLC50 (converted)
[11] = biological target: T2, Ecdysone receptor (Spodoptera littoralis); assay: Agonist activity at ecdysone receptor in Spodoptera littoralis Sl2 cells at 200 uM after 24 hr by luciferase reporter gene assay; assay type: cell-based
[12] = biological target: T4, Ecdysone receptor (Bombyx mori); assay: Agonist activity at ecdysone receptor in Bombyx mori Bm5 cells at 200 uM after 24 hr by luciferase reporter gene assay; assay type: cell-based

Activity [11]	Activity [12]	Compound	CC50 at 24 h (Spodoptera littoralis)	EC50 (Ecdysone receptor [1])	Efficacy [2]	EC50 (Ecdysone receptor [3])	Ratio [4]	Efficacy [5]	Ratio EC50 [6]	Ratio [7]	pIC50 (Ecdysone receptor [8])	pIC50 (Ecdysone receptor [9])	CC50 at 24 h [10]
		CCc1ccc(C(=O)NC(C(=O)c2cc(C)cc(C)c2)C(C)(C)C)cc1 (stereo not given)	> 501 µM	35.5 µM	17%	46.8 µM	<0.05	11%	0.76	0.72	4.55	4.62	38.9 µM
inactive	inactive	CCOc1ccccc1C(=O)N(NC(=O)c1ccc([N+](=O)[O-])cc1)C(C)(C)C											
inactive	inactive	CCOc1ccccc1C(=O)N(NC(=O)c1ccccc1)C(C)(C)C											

Source: ChEMBL document CHEMBL3046747, “Assessment of species specificity of moulting accelerating compounds in Lepidoptera: comparison of activity between Bombyx mori and Spodoptera littoralis by in vitro reporter and in vivo toxicity assays” (Pest Manag Sci, 2010)
